Reference: patent US9290421B2, “Hypervalent radioactive astatine or iodine compounds, and preparation methods thereof” (Institut National de la Santé de la Recherche Medicalé, priority 2010, dated 2016)

- melting point: 189 to 190 °C
SMILES: Cc1ccc2c(c1)C(C(F)(F)F)(C(F)(F)F)OI2Br [Compound 5a, 1-Bromo-1,3-dihydro-5-methyl-3,3-bis(trifluoromethyl)-1,2-benziodoxole]
